Experimental data taken from US7906501B2, “Pyrrole derivatives with angiotensin II antagonist activity” (Rottapharm S.p.A., priority 2004, dated 2011).
pIC50: −log10 of the molar value. Each block holds one molecule with its values, some of them ahead of it.

What was measured:
AT1 receptor = target: T1, AT1 receptor (Rattus norvegicus, UniProt P25095); assay: Inhibition of [125I]Sar1,Ile8-angiotensin II binding in rat liver membranes; conditions: for pIC50: rat liver membranes
T1 construct: from tissue; host or cells: rat liver membranes
T1 sequence (P25095 1-359): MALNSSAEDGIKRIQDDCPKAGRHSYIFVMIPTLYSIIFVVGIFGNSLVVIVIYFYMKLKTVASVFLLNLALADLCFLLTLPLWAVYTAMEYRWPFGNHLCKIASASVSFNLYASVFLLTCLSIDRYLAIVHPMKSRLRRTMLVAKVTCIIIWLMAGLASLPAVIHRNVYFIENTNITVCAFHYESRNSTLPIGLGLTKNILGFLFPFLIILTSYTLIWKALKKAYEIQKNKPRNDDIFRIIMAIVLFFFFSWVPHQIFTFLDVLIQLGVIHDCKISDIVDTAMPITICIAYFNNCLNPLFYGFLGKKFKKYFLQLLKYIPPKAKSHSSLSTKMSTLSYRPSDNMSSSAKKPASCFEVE
Description: Antagonist activity at the AT1 receptor on the part of compounds provided by the invention was assessed as the capacity to inhibit binding of the specific AII agonist to rat liver membranes. The method described by R. S. L. Chang et al., [JPET (1992), 262, 133-38] and M. J. Robertson et al., [Br. J. Pharmacol. (1992), 107, 1173-1180] was used with slight modifications. The concentration of radioligand [[…]]-Sar1, Ile^8-angiotensin II used was 25 pM with a membrane content corresponding to a protein concentration of approx. 25 μg of protein per sample; the incubation time was 180 minutes at 25° C. Separation of the bound from the free was carried out by rapid filtration on GFB Millipore glass fibre filters.

[1] = system: spontaneously hypertensive rat (SHR); assay: Reduction in systolic arterial pressure in the SHR rat after I.P. administration; type: in vivo; conditions: for Max. effect at 15 mg/kg (% reduction vs. basal): 0-120 min, systolic pressure; for ED15 (0-120 min): sodium salts, doses 5-20 mg/kg, dose giving 15% reduction in average basal systolic pressure, NC = not calculable, effect < 10% at all doses
[2] = system: renally hypertensive rat (RHR); assay: Reduction in systolic arterial pressure in the RHR rat after I.P. administration; type: in vivo; conditions: for Max. effect at 15 mg/kg (% reduction vs. basal): 0-120 min, systolic pressure; for ED15 (0-120 min): sodium salts, doses 5-20 mg/kg, dose giving 15% reduction in average basal systolic pressure, NC = not calculable, effect < 10% at all doses
in vitro = conditions: human, Caco-2
Description: (§1) Gres et al. Pharm.; Res. 15 (1998), pages 726-733].
(§2) A→B permeability was thus assessed, namely the apparent permeability coefficient (Papp), of the compounds under investigation, tested at a concentration of 50 μM with an incubation time of 60 minutes, in the apical-to-basolateral direction. B→A permeability is reversely assessed, i.e. in a basolateral-to-apical direction, with an incubation time of 40 minutes.

TC7 cell monolayer = assay: in vitro; conditions: human, Caco-2, 50 μM
Description: as §1, §2

[3] = displacement of 25 pM [125I]-Sar1,Ile8-angiotensin II, 180 min at 25° C.

pIC50 (AT1 receptor; [3]): 7.45
melting point: 180 °C
SMILES: CCCc1cc(C(C)C)c(C=O)n1Cc1ccc(-c2ccccc2-c2nnn[nH]2)cc1 [Compound 5, 5-n-Propyl-3-isopropyl-1-[2′-(1H-tetrazol-5-yl)biphenyl-4-yl-methyl]-2-pyrrolaldehyde]

SMILES: CCCCc1nc(Cl)c(CO)n1Cc1ccc(-c2ccccc2-c2nn[nH]n2)cc1 [Losartan, losartan]
Max. effect at 15 mg/kg (% reduction vs. basal) [1]: 12.0 % reduction vs. basal
ED15 (0-120 min) [1]: 25.4 mg/kg
Max. effect at 15 mg/kg (% reduction vs. basal) [2]: 18.9 % reduction vs. basal
ED15 (0-120 min) [2]: 16.4 mg/kg

pIC50 (AT1 receptor; [3]): 6.21
melting point: 150 °C
SMILES: CCCc1c(Cl)cc(C=O)n1Cc1ccc(-c2ccccc2-c2nnn[nH]2)cc1 [Compound 4, 4-Chloro-5-n-propyl-1-[2′-(1H-tetrazol-5-yl)biphenyl-4-yl-methyl]-2-pyrrolaldehyde]

pIC50 (AT1 receptor; [3]): 7.43
melting point: 144 °C
SMILES: CC(C)CCc1cc(C(C)C)c(C=O)n1Cc1ccc(-c2ccccc2-c2nnn[nH]2)cc1 [Compound 9, 5-[(3-Methyl)butyl]-3-isopropyl-1-[2′-(1H-tetrazol-5-yl)biphenyl-4-yl-methyl]-2-pyrrolaldehyde]

times more potent than the BPT-pyrrole derivative of EP-0323841 (AT1 receptor; 8.9 nM vs. 1.6 μM of compound 277 of EP 0 323 841): approx. 200 times
pIC50 (AT1 receptor; AT1 binding): 8.05
times less potent than valsartan and eprosartan in vitro (AT1 receptor; respectively vs. valsartan and eprosartan): approx. ⅗
Papp A→B at 60 min, 50 μM (in vitro): 27.9 ×10⁻⁶ cm/s
Papp B→A at 40 min, 50 μM (in vitro): 3.4 ×10⁻⁶ cm/s
Ratio (1/2) (TC7 cell monolayer): 8.2
melting point: 148 °C
SMILES: CCCCc1cc(CC(C)C)c(C=O)n1Cc1ccc(-c2ccccc2-c2nnn[nH]2)cc1 [Compound 1, 5-n-Butyl-1-[2′-(1H-tetrazol-5-yl)biphenyl-4-yl-methyl]-3-[3-(2-methyl)propyl]-2-pyrrolaldehyde]
Max. effect at 15 mg/kg (% reduction vs. basal) [1]: 16.0 % reduction vs. basal
ED15 (0-120 min) [1]: 17.4 mg/kg
Max. effect at 15 mg/kg (% reduction vs. basal) [2]: 22.1 % reduction vs. basal
ED15 (0-120 min) [2]: 12.6 mg/kg

pIC50 (AT1 receptor; [3]): 4.97
melting point: 107 °C
SMILES: Cc1ccc(C)n1Cc1ccc(-c2ccccc2-c2nnn[nH]2)cc1 [Compound 14, 2,5-Dimethyl-1-[2′-(1H-tetrazol-5-yl)biphenyl-4-yl-methyl]pyrrole]

Papp A→B at 60 min, 50 μM (in vitro): 0.1 ×10⁻⁶ cm/s
Papp B→A at 40 min, 50 μM (in vitro): 0.4 ×10⁻⁶ cm/s
SMILES: CCCCc1ncc(/C=C(\Cc2cccs2)C(=O)O)n1Cc1ccc(C(=O)O)cc1 [Eprosartan, eprosartan, reference compound]
Max. effect at 15 mg/kg (% reduction vs. basal) [1]: 5.0 % reduction vs. basal
Max. effect at 15 mg/kg (% reduction vs. basal) [2]: 9.2 % reduction vs. basal

pIC50 (AT1 receptor; [3]): 6.98
melting point: 144 °C
SMILES: CCCCCc1cc(C(C)C)c(C=O)n1Cc1ccc(-c2ccccc2-c2nnn[nH]2)cc1 [Compound 8, 5-n-Pentyl-3-isopropyl-1-[2′-(1H-tetrazol-5-yl)biphenyl-4-yl-methyl]-2-pyrrolaldehyde]

pIC50 (AT1 receptor; [3]): 8.47
Papp A→B at 60 min, 50 μM (in vitro): 0.2 ×10⁻⁶ cm/s
Papp B→A at 40 min, 50 μM (in vitro): 0.2 ×10⁻⁶ cm/s
Ratio (1/2) (TC7 cell monolayer): 1.0
SMILES: CCCCC(=O)N(Cc1ccc(-c2ccccc2-c2nnn[nH]2)cc1)[C@H](C(=O)O)C(C)C [Valsartan, valsartan, reference compound]
Max. effect at 15 mg/kg (% reduction vs. basal) [1]: 14.4 % reduction vs. basal
ED15 (0-120 min) [1]: 26.2 mg/kg
Max. effect at 15 mg/kg (% reduction vs. basal) [2]: 19.0 % reduction vs. basal
ED15 (0-120 min) [2]: 16.0 mg/kg

pIC50 (AT1 receptor; [3]): 7.14
melting point: 104 °C
SMILES: CCCc1ccc(C=O)n1Cc1ccc(-c2ccccc2-c2nnn[nH]2)cc1 [Compound 2, 5-n-Propyl-1-[2′-(1H-tetrazol-5-yl)biphenyl-4-yl-methyl]-2-pyrrolaldehyde]

pIC50 (AT1 receptor; [3]): 6.57
melting point: 142 °C
SMILES: CCCCc1ccc(C(=O)O)n1Cc1ccc(-c2ccccc2-c2nnn[nH]2)cc1 [Compound 12, 5-n-Butyl-1-[2′-(1H-tetrazol-5-yl)biphenyl-4-yl-methyl]-2-pyrrolecarboxylic acid]

pIC50 (AT1 receptor; [3]): 6.35
SMILES: CCCc1ccc(CO)n1Cc1ccc(-c2ccccc2-c2nnn[nH]2)cc1 [Compound 13]

pIC50 (AT1 receptor; [3]): 5.92
melting point: 160 °C
SMILES: CCCc1cc(C(C)C)c(C)n1Cc1ccc(-c2ccccc2-c2nnn[nH]2)cc1 [Compound 15, 2-Methyl-5-n-propyl-3-isopropyl-1-[2′-(1H-tetrazol-5-yl)biphenyl-4-yl-methyl]pyrrole]

pIC50 (AT1 receptor; [3]): 7.18
melting point: 129 °C
SMILES: CCCCc1ccc(C=O)n1Cc1ccc(-c2ccccc2-c2nnn[nH]2)cc1 [Compound 7, 5-n-Butyl-1-[2′-(1H-tetrazol-5-yl)biphenyl-4-yl-methyl]-2-pyrrolaldehyde]

pIC50 (AT1 receptor; [3]): 5.98
melting point: 167 °C
SMILES: CCCc1c(Br)cc(C=O)n1Cc1ccc(-c2ccccc2-c2nnn[nH]2)cc1 [Compound 3, 4-Bromo-5-n-propyl-1-[2′-(1H-tetrazol-5-yl)biphenyl-4-yl-methyl]-2-pyrrolaldehyde]

pIC50 (AT1 receptor; [3]): 6.97
melting point: 170 °C
SMILES: CCCc1cc(C(C)C)c(C(=O)O)n1Cc1ccc(-c2ccccc2-c2nnn[nH]2)cc1 [Compound 11, 5-n-Propyl-3-isopropyl-1-[2′-(1H-tetrazol-5-yl)biphenyl-4-yl-methyl]-2-pyrrolecarboxylic acid]

pIC50 (AT1 receptor; [3]): 7.82
Papp A→B at 60 min, 50 μM (in vitro): 15.4 ×10⁻⁶ cm/s
Papp B→A at 40 min, 50 μM (in vitro): 1 ×10⁻⁶ cm/s
Ratio (1/2) (TC7 cell monolayer): 15.4
melting point: 174 °C
SMILES: CCCCc1cc(C(C)C)c(C=O)n1Cc1ccc(-c2ccccc2-c2nnn[nH]2)cc1 [Compound 6, 5-n-Butyl-3-isopropyl-1-[2′-(1H-tetrazol-5-yl)biphenyl-4-yl-methyl]-2-pyrrolaldehyde]
Max. effect at 15 mg/kg (% reduction vs. basal) [1]: 13.2 % reduction vs. basal
ED15 (0-120 min) [1]: 19.3 mg/kg
Max. effect at 15 mg/kg (% reduction vs. basal) [2]: 18.7 % reduction vs. basal
ED15 (0-120 min) [2]: 16.0 mg/kg

pIC50 (AT1 receptor; [3]): 6.32
melting point: 134 °C
SMILES: CCCc1ccc(C(=O)O)n1Cc1ccc(-c2ccccc2-c2nnn[nH]2)cc1 [Compound 10, 5-n-Propyl-1-[2′-(1H-tetrazol-5-yl)biphenyl-4-yl-methyl]-2-pyrrolecarboxylic acid]
